{"source": "patent US11661581B2", "about": "“Use of CDK inhibitors to enhance growth and self-renewal of progenitor cells” (University of Massachusetts, priority 2017, dated 2023)", "key": {"[1]": {"system": "mouse bone marrow CFU-e progenitors", "test": "CFU-e colony formation in semi-solid medium from mouse bone marrow cultures", "format": "cell-based", "conditions": "for increase in absolute CFU-e numbers relative to control cultures: day 5 of culture", "procedure": "(17B) Mouse bone marrow erythroid progenitors, treated as described in A, but plated on day 5 of the culture in semi-solid medium, CFU-e colonies scored 72 hours later."}, "[2]": {"system": "mouse bone marrow erythroid progenitors", "test": "Mouse adult bone marrow erythroid self-renewal culture, amplification of cell number", "format": "cell-based", "conditions": "for growth of mouse bone marrow erythroid progenitors (in words): drug at five times its respective IC50, two independent experiments", "procedure": "(§1) Adult bone marrow mononuclear cells (StemCell Technologies) (A), mouse fetal liver (B) and mouse adult bone marrow (C-D), were cultured in the presence of Dex, Epo, SCF and IGF-1. Dex slows down and delays the transition from self-renewal to differentiation of early CFU-e progenitors, leading to their numerical amplification.\nThe doses chosen for all these inhibitors were approximately 5 times the IC50 for each drug."}, "[3]": {"system": "mouse fetal liver erythroid cells", "test": "Mouse fetal liver erythroid self-renewal culture (Example 2), amplification of cell number", "format": "cell-based", "conditions": "Dex, Epo, SCF, IGF-1", "procedure": "as §1\n(§2) We cultured hematopoietic tissue cells from either mouse adult bone marrow, mouse fetal liver (mid-gestation, embryonic day 13.5), or human adult bone marrow (StemCell Technologies, Vancouver, Canada), under conditions that facilitate self-renewal of colony-forming-unit-erythroid (CFU-e), in which the following are added to the culture medium: erythropoietin (Epo, 2 Units/ml), Stem Cell Factor (SCF, 100 ng/ml), Insulin-like Growth Factor 1 (IGF1, 40 ng/ml) and dexamethasone (Dex, 1 μM). Control cultures contained no other specialized additives; parallel cultures had, in addition, the CDK inhibitor roscovitine (1, 5 or 10 μM) (Pippin et al., J Clin Invest 100, 2512-2520 (1997); Meijer et al., European Journal of Biochemistry 243, 527-536 (1997)). […]"}, "[4]": {"system": "human adult bone marrow mononuclear cells (erythroid progenitors)", "test": "Human bone marrow erythroid self-renewal culture, amplification of cell number", "format": "cell-based", "conditions": "peak on day 16; pooled from two independent experiments; roscovitine concentration not stated (1, 5 or 10 μM)", "procedure": "as §1, §2"}, "[5]": {"system": "wild-type CFU-e", "test": "Dex-dependent CFUe self-renewal (expansion) culture of wild-type fetal liver cells", "format": "cell-based, mouse", "procedure": "(§3) To isolate Ter119-negative cells, fresh fetal liver cells were stained with biotin-conjugated anti-Ter119 (BD Biosciences 553672) at 1:100, followed by EasySep magnetic separation (StemCell Technologies). Cells were grown in Stem-Pro-34 serum free medium supplemented with nutrient supplement (Invitrogen), 1 μM dexamethasone (Sigma), 100 ng/ml SCF (PeproTech), 40 ng/ml IGF1 (PeproTech), 2 U/ml Epo, 100 U/ml penicillin/streptomycin (Invitrogen) and 2 mM L-glutamine (Invitrogen). Cells were maintained at 2×10^6 cells/ml, and supplemented daily with fresh medium and growth factors. To test the effect of roscovitine on p57^KIP2−/− fetal liver cells in expansion culture, cells were grown and maintained as described above with the additional supplemented daily of 0.5 μM roscovitine (EMD Millipore 557360). To switch to differentiation medium, after being maintained in expansion medium for 4 to 5 days, Ter119-negative cells were isolated again using EasySep magnetic beads (StemCell Technologies). Cells were then transferred to IMDM (L-glutamine, 25 mM HEPES) (Gibco), 20% fetal calf serum (Gibco, HyClone), 100 U/ml penicillin/streptomycin (Invitrogen), […] β-mercapthoethanol (Sigma) and 2 U/ml Epo.\nIn three independent experiments, wild-type cells growing in roscovitine were amplified an average of 1.92±0.43 fold more than wild-type cells without treatment."}, "[6]": {"system": "human bone-marrow CFU-e progenitors", "test": "CFU-e colony formation in semi-solid medium from human bone marrow cultures", "conditions": "cells taken on day 11 of culture", "method": "(17A) Human bone-marrow erythroid progenitors were amplified in cultures as in FIG. 1A. On day 11 of culture, cells were plated in semi-solid methylcellulose medium under differentiation conditions (in the presence of Epo and in the absence of Dex or SCF). CFU-e colonies were scored at 72 hours using diaminobenzidine staining to identify hemoglobinized cells. The absolute number of CFU-e progenitors obtained from the same initial starting number in each culture is shown. All statistically significant differences are noted (two-tailed t test, unequal variance)."}, "[7]": {"system": "human bone marrow self-renewing cultures", "test": "Flow cytometry of human bone marrow self-renewing cultures", "format": "cell-based", "conditions": "day 10 of culture", "text": "(18B) Flow cytometric analysis of human bone marrow self-renewing cultures, on day 10 of culture."}, "[8]": {"system": "p57KIP2-/- CFUe", "test": "CFUe colony potential of p57KIP2-/- cells from Dex self-renewal cultures", "conditions": "day 11 of culture, 10^5 cells per dish, colonies scored 72 hours after plating", "method": "(12B) Analysis of CFUe potential in Dex-dependent self-renewal cultures of p57^KIP2−/− cells treated with roscovitine (See FIG. 5I). On day 11 of culture, cells amplified in the presence or absence of roscovitine were plated at 10^5 cells per dish in Epo-containing semi-solid medium. The number of CFUe colonies formed per dish was scored 72 hours following plating."}, "[9]": {"system": "p57KIP2-deficient fetal liver CFUe", "test": "Dex-dependent CFUe self-renewal (expansion) culture of p57KIP2-deficient fetal liver cells", "format": "cell-based, mouse", "conditions": "self-renewal medium Epo+Dex; roscovitine 0.5 μM", "procedure": "as §3\nWe also investigated whether CDK inhibition could underlie the essential role that p57^KIP2 plays in maintaining the viability of self-renewing CFUe."}, "[10]": {"system": "mouse bone marrow self-renewing cultures", "test": "Flow cytometry and BrdU cell cycle analysis of mouse bone marrow self-renewing cultures", "format": "cell-based", "procedure": "(18A) Flow cytometric analysis of mouse bone marrow self-renewing cultures, on day 6 of culture. […] The overall viability of cells in roscovitine-treated cultures was increased (not shown). Bottom panels: corresponding cell cycle analysis of cells in each culture. Cells were pulsed with BrdU at 33 μM for 25 min before analysis.\nWe examined cells in the self-renewing cultures using flow-cytometry. Cell surface markers CD71 and Ter119 denote the differentiation stage of erythroid progenitors and precursors in mouse hematopoietic tissue^81,41. […] By contrast, control cultures contained a substantial fraction (35%) of Ter119+ cells."}}, "note": "Entries after “also recorded” stand apart in the source; their conditions may differ."}
{"smiles": "CC(=O)c1c(C)c2cnc(Nc3ccc(N4CCNCC4)cn3)nc2n(C2CCCC2)c1=O", "note": "[PD0332991]", "values": [{"measurement": "absolute number of CFU-e progenitors by colony formation assay versus control", "setting": "[1]; 0.1 μM", "value": "either no significant effect or an inhibitory effect"}, {"measurement": "amplification of erythroid cell number versus control cultures", "setting": "[2]; 0.1 μM", "value": "either no significant effect or an inhibitory effect"}, {"measurement": "growth of mouse bone marrow erythroid progenitors (in words)", "setting": "[2]", "value": "growth inhibition"}]}
{"smiles": "NS(=O)(=O)c1ccc(N/N=C2\\C(=O)Nc3ccc(Br)cc32)cc1", "note": "[SC-221409]", "values": [{"measurement": "absolute number of CFU-e progenitors by colony formation assay versus control", "setting": "[1]; 0.5 μM", "value": "significant increase"}, {"measurement": "amplification of erythroid cell number versus control cultures", "setting": "[2]; 0.5 μM", "value": "significant increase"}, {"measurement": "growth of mouse bone marrow erythroid progenitors (in words)", "setting": "[2]", "value": "improved growth"}]}
{"smiles": "CC[C@H](CO)Nc1nc(NCc2ccccc2)c2ncn(C(C)C)c2n1", "note": "[roscovitine]", "values": [{"measurement": "amplification of erythroid cell number in mouse fetal liver cultures (in words)", "setting": "[3]", "value": "increased amplification; also recorded: significantly higher cell numbers"}, {"measurement": "peak amplification of cell number", "setting": "[4]", "value": 9, "unit": "fold"}, {"measurement": "increase in absolute CFU-e numbers relative to control cultures", "setting": "[1]; 1 μM", "value": 62, "unit": "%"}, {"measurement": "increase in absolute CFU-e numbers relative to control cultures", "setting": "[1]; 5 μM", "value": 40, "unit": "%"}, {"measurement": "amplification of wild-type CFU-e (in words)", "setting": "[5]; Dex cultures", "value": "enhanced the amplification; also recorded: also enhanced"}, {"measurement": "amplification of wild-type cells relative to wild-type cells without treatment", "setting": "[5]; average of three independent experiments", "value": "1.92±0.43", "unit": "fold"}, {"measurement": "progenitors from wild-type cells relative to absence of drug", "setting": "[5]; period of 7-9 days", "value": 2, "unit": "fold"}, {"measurement": "normal expansion of CFUe cultures derived from wild-type littermates", "setting": "[5]; roscovitine 0.5 μM", "value": "little effect"}, {"measurement": "increase in absolute number of CFU-e progenitors over control cultures", "setting": "[6]; 1 μM", "value": 3.9, "unit": "fold"}, {"measurement": "increase in absolute number of CFU-e progenitors relative to control", "setting": "[6]; 5 μM", "value": 4.5, "unit": "fold"}, {"measurement": "growth of mouse bone marrow erythroid progenitors (in words)", "setting": "[2]", "value": "improved growth"}, {"measurement": "cell numbers in mouse adult bone marrow cultures (in words)", "setting": "[2]; roscovitine 1, 5 or 10 μM", "value": "significantly higher cell numbers"}, {"measurement": "cells expressing glycophorin A (in words)", "setting": "[7]", "value": "fewer cells are glycophorin A positive"}, {"measurement": "cells expressing glycophorin A (in words)", "setting": "[7]; listed as Roscovitine", "value": "lower number"}, {"measurement": "CFUe colony forming potential of treated p57KIP2-/- cells versus untreated cells", "setting": "[8]", "value": "retained the same potential; also recorded: preserved CFUe colony potential"}, {"measurement": "Dex-dependent self-renewal and expansion of p57KIP2-deficient CFUe", "setting": "[9]", "value": "rescued self-renewal; also recorded: rescue the self-renewal; also recorded: successfully rescued"}, {"measurement": "number of S phase cells (in words)", "setting": "[10]; BrdU 33 μM pulse for 25 min", "value": "fewer S phase cells"}, {"measurement": "speed of S phase, rate of BrdU incorporation (BrdU MFI in S phase gate)", "setting": "[10]; BrdU 33 μM pulse for 25 min", "value": "substantially slower"}, {"measurement": "speed of S phase, rate of BrdU incorporation (BrdU MFI in S phase gate)", "setting": "[10]; BrdU 33 μM pulse for 25 min, listed as Roscovitine", "value": "slower S phase"}, {"measurement": "terminally-differentiating Ter119+ erythroblasts compared with control (in words)", "setting": "[10]; day 6 of culture", "value": "relative absence"}, {"measurement": "overall viability of cells in culture", "setting": "[10]; day 6 of culture, data not shown", "value": "increased"}, {"measurement": "cells in the culture expressing Ter119", "setting": "[10]; mouse bone marrow cultures, roscovitine-treated", "value": 6, "unit": "%"}]}
